Data set [1] can be described thus: in vitro dissolution test of solubility-improved forms in MFD solution (microcentrifuge). In kind it is physicochemical. The following applies: MFD solution (PBS pH 6.5, 0.5 wt % NaTC/POPC), 37° C., 1000 μgA/mL if all dissolved. As for the experimental part: An in vitro dissolution test was used to determine the dissolution performance of the HPMCAS SDD. […] The test was run in duplicate. The test tubes were placed in a 37° c. temperature-controlled chamber, and an MFD solution consisting of 1.8 mL PBS at pH 6.5 and 290 mosm/kg, containing 7.3 mm sodium taurocholic acid and 1.4 mm of 1-palmitoyl-2-oleyl-sn-glycero-3-phosphocholine (0.5 wt % NaTC/POPC) was added to each tube. The samples were mixed with a vortex mixer for one minute, then centrifuged at 13,000 g and 37° C. for one minute. The resulting supernatant solution was then sampled and diluted 1:5 (by volume) with methanol and analyzed by high-performance liquid chromatography (HPLC). HPLC analysis was performed using a Zorbax SB-C8 column. The mobile phase consisted of 45% 5 mm triethanolamine, adjusted to pH 7.0, and 55% acetonitrile, with a flow rate of 1.5 mL/min. UV absorbance was measured at 254 nm. The contents of each tube were mixed on the vortex mixer and allowed to stand undisturbed at 37° C. until the next sample was taken. Samples were collected at 4, 10, 20, 40, 90, and 1200 minutes.
The concentrations of drug obtained in these samples were used to determine the maximum dissolved concentration of drug and the area under the concentration-versus-time curve during the initial 90 minutes (MDC90 and DAUC90, respectively). […]

Data set [2] in a line: in vitro membrane permeation test (maximum drug flux). It counts as physicochemical. The following applies: MFD feed solution 1000 μg/mL, permeate 20 wt % decanol in decane, 37° C., fit 0 to 60 minutes. The protocol: The NP composition was evaluated in vitro using a membrane permeation test as follows. An Accurel® PP 1 E microporous polypropylene membrane was obtained from Membrana GmbH (Wuppertal, Germany). The membrane was washed in isopropyl alcohol and rinsed in methanol in a sonicating bath for one minute at ambient temperature, and then allowed to air dry at ambient temperature. The feed side of the membrane was then plasma-treated to render it hydrophilic by placing a sample of the membrane in a plasma chamber. The atmosphere of the plasma chamber was saturated with water vapor at a pressure of 550 mTorr. A plasma was then generated using radio frequency (RF) power inductively coupled into the chamber via annular electrodes at a power setting of 50 Watts for 45 seconds. The contact angle of a drop of water placed on the surface of the plasma-treated membrane was about 40°. […]
To form the feed solution, a 13.33 mg sample of the solid NP composition was weighed into the feed reservoir. […] Samples were then diluted in 250 μL IPA and analyzed using HPLC. […] UV absorbance was measured at 254 nm.
The maximum flux of drug across the membrane (in units of μg/cm^2-min) was determined by performing a least-squares fit to the concentration versus time data from 0 to 60 minutes to obtain the slope, multiplying the slope by the permeate volume (5 mL), and dividing by the membrane area (4.9 cm^2).

The nature of data set [3]: GastroPlus (ACAT) simulation of absorption and pharmacokinetics. As to conditions: estimated based on clinical data.
From the text: GastroPlus™ is a computer program that simulates absorption and pharmacokinetics for orally dosed drugs.
GastroPlus™ was used to simulate the absorption and pharmacokinetics of the reference and test formulations.
The drug release profiles were used by the software to calculate the drug concentration in each compartment. The estimated human permeability data were computed using a modification of the human fasted log D absorption model to account for permeability. The model then calculated the fraction of the dose absorbed based on the ACAT model using drug concentration, permeability, surface area, and transit time in each compartment. Pharmacokinetic parameters, e.g. volume of distribution, clearance, and micro-constants were added to the software in the pharmacokinetic page, which enabled the software to calculate plasma concentration—time curves.
In the physiology page, a user-supplied physiology file was provided to the program as an input file, consisting of the following transit times for each compartment (hr): 0.1, 0.25, 0.5, 0.5, 1.0, 1.0, 1.0, 8.0, and 24.0 hr.
The model was used to evaluate the performance of the dosage forms of the invention.
A short description of another data set: physchem. As to conditions: pH 7, aqueous buffer.

Molecules are shown by their SMILES. ≈ marks a conversion by molar mass, not a printed value.

As for `Cc1ccc(-c2cc(C(F)(F)F)nn2-c2ccc(S(N)(=O)=O)cc2)cc1` [Crystalline celecoxib, celecoxib], in data set [1], the “DAUC90 (area under the concentration-versus-time curve during the initial 90 minutes)” value was found to be 4100 min*μgA/mL and the “MDC90 (maximum dissolved concentration of drug during the initial 90 minutes)” value is 60 μgA/mL. Besides, the “Maximum Drug Flux” value in data set [2] was 1.0 μg/cm^2-min.
A word on the solubility: it is the dissolved amount per volume that the medium holds. `Cc1ccc(-c2cc(C(F)(F)F)nn2-c2ccc(S(N)(=O)=O)cc2)cc1` [celecoxib]: the “human permeability (Peff)” value in data set [3] was 112.62 ×10⁻⁶ cm/s. Moreover, the solubility in the data set “physchem” stood at 11.6 µg/mL (≈ 30.4 µM).

The values above are taken from patent US20100233272A1 (priority 2007, published 2010).
